The values below come from patent EP4563146A1 (IRBM S.P.A., priority 2023, dated 2025).

T1 sequence (Q9Q6P4 1423-1470): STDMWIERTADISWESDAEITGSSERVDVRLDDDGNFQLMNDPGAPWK
T1 sequence (Q9Q6P4 1506-1689): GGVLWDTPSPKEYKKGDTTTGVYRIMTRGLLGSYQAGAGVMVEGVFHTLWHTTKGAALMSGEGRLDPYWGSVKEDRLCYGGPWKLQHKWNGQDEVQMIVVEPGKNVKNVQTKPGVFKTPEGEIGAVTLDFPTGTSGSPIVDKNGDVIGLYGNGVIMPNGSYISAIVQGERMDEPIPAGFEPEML

For the first experiment, the system named is ZIKV replicon. In words: ZIKV replication inhibition assay (NanoLuc replicon in Vero cells). Conditions: Zika virus, Vero, 72 h, read-out: ZIKA Cell_Nanoluc.
As for `O=C(Cc1ccccc1)Nc1cc(NC(=O)[N-]c2c[n+](CC3CCNCC3)no2)cc(C(F)(F)F)c1` [Example 120], the EC50 was over 20000 nM.
Still for that read-out and setting: with `CN1CCCCC1C[n+]1cc([N-]C(=O)Nc2cc(NC(=O)Cc3ccccc3)cc(C3CC3)c2)on1` (stereo not shown) [Example 127] the figure was 1000 to 20000 nM.
Still for that read-out and setting: with `N[C@H]1CC[C@@H](C[n+]2cc([N-]C(=O)Nc3cc(N4CCC(c5ccccc5)C4=O)cc(C(F)(F)F)c3)on2)CC1` (stereo partly drawn) [Example 131, (3-(((1S,4S)-4-Aminocyclohexyl)methyl)-1,2,3-oxadiazol-3-ium-5-yl)((3-(2-oxo-3-phenylpyrrolidin-1-yl)-5-(trifluoromethyl)-phenyl)carbamoyl)amide] the figure was 1000 to 20000 nM; with `N[C@H]1CC[C@H](C[n+]2cc([N-]C(=O)Nc3cc(N4CCC(c5ccccc5)C4=O)cc(C(F)(F)F)c3)on2)CC1` (stereo partly drawn) [Example 132, (3-(((1R,4R)-4-Aminocyclohexyl)methyl)-1,2,3-oxadiazol-3-ium-5-yl)((3-(2-oxo-3-phenylpyrrolidin-1-yl)-5-(trifluoromethyl)-phenyl)carbamoyl)amide], over 20000 nM.
On the same count and under the same terms, the result for `NC[C@H]1CC[C@@H](C[n+]2cc([N-]C(=O)Nc3cc(N4CCC(c5ccccc5)C4=O)cc(C(F)(F)F)c3)on2)CC1` (stereo partly drawn) [Example 133, (3-(((1S,4S)-4-(Aminomethyl)cyclohexyl)-methyl)-1,2,3-oxadiazol-3-ium-5-yl)((3-(2-oxo-3-phenylpyrrolidin-1-yl)-5-(trifluoromethyl)-phenyl)carbamoyl)amide] reads 1000 to 20000 nM; that for `O=C([N-]c1c[n+](C[C@H]2CC[C@@H](NCC(F)(F)F)CC2)no1)Nc1cc(N2CCC(c3ccccc3)C2=O)cc(C(F)(F)F)c1` (stereo partly shown) [Example 136, ((3-(2-Oxo-3-phenylpyrrolidin-1-yl)-5-(trifluoromethyl)phenyl)carbamoyl)(3-(((1s,4s)-4-((2,2,2-trifluoroethyl)amino)cyclohexyl)methyl)-1,2,3-oxadiazol-3-ium-5-yl)amide], 100 to 1000 nM; that for `O=C([N-]c1c[n+](C[C@H]2CC[C@H](NCC(F)(F)F)CC2)no1)Nc1cc(N2CCC(c3ccccc3)C2=O)cc(C(F)(F)F)c1` (stereo partly drawn) [Example 137, ((3-(2-Oxo-3-phenylpyrrolidin-1-yl)-5-(trifluoromethyl)phenyl)carbamoyl)(3-(((1R,4R)-4-((2,2,2-trifluoroethyl)amino)-cyclohexyl)methyl)-1,2,3-oxadiazol-3-ium-5-yl)amide], 100 to 1000 nM.
Turning to `O=C([N-]c1c[n+](C[C@H]2CC[C@H](NC(=O)C(F)(F)F)CC2)no1)Nc1cc(N2CC[C@H](c3ccccc3)C2=O)cc(C(F)(F)F)c1` [Example 145, ((3-((R)-2-Oxo-3-phenylpyrrolidin-1-yl)-5-(trifluoromethyl)phenyl)carbamoyl)(3-(((1R,4R)-4-(2,2,2-trifluoroacetamido)cyclohexyl)methyl)-1,2,3-oxadiazol-3-ium-5-yl)amide], the EC50 fell in the range of 1000 to 20000 nM.
The same measure, in the same setting: with `CN(CC(F)(F)F)[C@H]1CC[C@H](C[n+]2cc([N-]C(=O)Nc3cc(N4CC[C@H](c5ccccc5)C4=O)cc(C(F)(F)F)c3)on2)CC1` [Example 146, (3-(((1R,4R)-4-(Methyl(2,2,2-trifluoroethyl)-amino)cyclohexyl)methyl)-1,2,3-oxadiazol-3-ium-5-yl)((3-((R)-2-oxo-3-phenylpyrrolidin-1-yl)-5-(trifluoromethyl)phenyl)carbamoyl)amide] the figure was 100 to 1000 nM.

The same experiment, now with this note: Zika virus, Vero, 72 h, read-out: ZIKA Cell_Nanoluc, Vero cells with stable ZIKV replicon, 72 h, Nano-Glo readout.
Turning to `CN1c2ccccc2CCC1C[n+]1cc([N-]C(=O)Nc2ccnc(C(F)(F)F)c2)on1` (racemic) [Example 178, rac-(3-((1-Methyl-1,2,3,4-tetrahydroquinolin-2-yl)methyl)-1,2,3-oxadiazol-3-ium-5-yl)((2-(trifluoromethyl)pyridin-4-yl)carbamoyl)amide], the EC50 lay in the range of 100 to 1000 nM.
Same read-out and setting: the result for `Cc1ncnc(C)c1-c1ccc(C[n+]2cc([N-]C(=O)N[C@H]3CC[C@@]4(C3)CC4(F)F)on2)nc1` (racemic) [Example 180, rac-(((3R,5S)-1,1-Difluorospiro[2.4]heptan-5-yl)carbamoyl)(3-((5-(4,6-dimethylpyrimidin-5-yl)pyridin-2-yl)methyl)-1,2,3-oxadiazol-3-ium-5-yl)amide] reads 1000 to 20000 nM; that for `CN1CCc2ccccc2C1C[n+]1cc([N-]C(=O)Nc2ccnc(C(F)(F)F)c2)on1` (racemic) [Example 181, rac-(3-((2-Methyl-1,2,3,4-tetrahydroisoquinolin-1-yl)methyl)-1,2,3-oxadiazol-3-ium-5-yl)((2-(trifluoromethyl)pyridin-4-yl)carbamoyl)amide], 100 to 1000 nM.
The same measure, in the same setting: the result for `CN1CCc2ccccc2C1C[n+]1cc([N-]C(=O)Nc2cc(NC(=O)Cc3ccccc3)cc(C(F)(F)F)c2)on1` (racemic) [Example 192, rac-(3-((2-Methyl-1,2,3,4-tetrahydroisoquinolin-1-yl)methyl)-1,2,3-oxadiazol-3-ium-5-yl)((3-(2-phenylacetamido)-5-(trifluoromethyl)phenyl)carbamoyl)amide] reads 100 to 1000 nM; that for `O=C([N-]c1c[n+](CC2CCCc3ccccc32)no1)Nc1ccnc(C(F)(F)F)c1` (racemic) [Example 200, Rac-(3-((1,2,3,4-Tetrahydronaphthalen-1-yl)methyl)-1,2,3-oxadiazol-3-ium-5-yl)((2-(trifluoromethyl)pyridin-4-yl)carbamoyl)amide], 100 to 1000 nM.
Same read-out and setting: with `NC1CC(C[n+]2cc([N-]C(=O)Nc3cc(NC(=O)Cc4ccccc4)cc(C(F)(F)F)c3)on2)C1` (stereo not shown) [Example 118, (3-((3-Aminocyclobutyl)methyl)-1,2,3-oxadiazol-3-ium-5-yl)((3-(2-phenylacetamido)-5-(trifluoromethyl)phenyl)carbamoyl)amide] the figure was 1000 to 20000 nM; with `O=C([N-]c1c[n+](Cc2ccccn2)no1)Nc1cc(N2CC(c3ccccc3)CC2=O)cc(C(F)(F)F)c1` (stereo not shown) [Example 122, ((3-(2-Oxo-4-phenylpyrrolidin-1-yl)-5-(trifluoromethyl)phenyl)carbamoyl)(3-(pyridin-2-ylmethyl)-1,2,3-oxadiazol-3-ium-5-yl)amide], 1000 to 20000 nM.
Turning to `O=C(Cc1ccc(=O)[nH]c1)Nc1cc(NC(=O)[N-]c2c[n+](Cc3ccccn3)no2)cc(C(F)(F)F)c1` [Example 123, ((3-(2-(6-Oxo-1,6-dihydropyridin-3-yl)acetamido)-5-(trifluoromethyl)phenyl)-carbamoyl)(3-(pyridin-2-ylmethyl)-1,2,3-oxadiazol-3-ium-5-yl)amide], the EC50 was over 20000 nM.
As for `O=C(Cc1ccc2nc[nH]c2c1)Nc1cc(NC(=O)[N-]c2c[n+](Cc3ccccn3)no2)cc(C(F)(F)F)c1` [Example 124, ((3-(2-(1H-Benzo[d]imidazol-6-yl)acetamido)-5-(trifluoromethyl)phenyl)carbamoyl)(3-(pyridin-2-ylmethyl)-1,2,3-oxadiazol-3-ium-5-yl)amide], the EC50 was over 20000 nM.
Same read-out and setting: with `O=C(Cc1ccccc1)Nc1cc(NC(=O)[N-]c2c[n+](CC3CCCCN3)no2)cc(C(F)(F)F)c1` (stereo not shown) [Example 125, ((3-(2-Phenylacetamido)-5-(trifluoromethyl)-phenyl)carbamoyl)(3-(piperidin-2-ylmethyl)-1,2,3-oxadiazol-3-ium-5-yl)amide] the figure was 1000 to 20000 nM; with `O=C(Cc1cccc2cn[nH]c12)Nc1cc(NC(=O)[N-]c2c[n+](Cc3ccccn3)no2)cc(C(F)(F)F)c1` [Example 126, ((3-(2-(1H-Indazol-7-yl)acetamido)-5-(trifluoromethyl)phenyl)carbamoyl)(3-(pyridin-2-ylmethyl)-1,2,3-oxadiazol-3-ium-5-yl)amide], over 20000 nM.
Still for that read-out and setting: the result for `COC(=O)c1ccc(C[n+]2cc([N-]C(=O)Nc3cc(NC(=O)Cc4ccccc4)cc(C4CC4)c3)on2)nc1` [Example 128, ((3-Cyclopropyl-5-(2-phenylacetamido)phenyl)-carbamoyl)(3-((5-(methoxycarbonyl)pyridin-2-yl)methyl)-1,2,3-oxadiazol-3-ium-5-yl)amide] reads 1000 to 20000 nM; that for `O=C(Cc1ccccc1)Nc1cc(NC(=O)[N-]c2c[n+](Cc3ccc(CO)cn3)no2)cc(C2CC2)c1` [Example 129, ((3-Cyclopropyl-5-(2-phenylacetamido)phenyl)-carbamoyl)(3-((5-(hydroxymethyl)pyridin-2-yl)methyl)-1,2,3-oxadiazol-3-ium-5-yl)amide], 1000 to 20000 nM; that for `C[C@@H]1C[C@H]1c1cc(NC(=O)Cc2ccccc2)cc(NC(=O)[N-]c2c[n+](Cc3ccccn3)no2)c1` [Example 130, ((3-((1R,2R)-2-Methylcyclopropyl)-5-(2-phenylacetamido)phenyl)-carbamoyl)(3-(pyridin-2-ylmethyl)-1,2,3-oxadiazol-3-ium-5-yl)amide], 1000 to 20000 nM.
Same read-out and setting: the result for `O=C(Cc1ccccc1)Nc1cc(NC(=O)[N-]c2c[n+](CC3CC(NCc4ccc(O)cn4)C3)no2)cc(C(F)(F)F)c1` (stereo not shown) [Example 134, (3-((3-(((5-Hydroxypyridin-2-yl)methyl)amino)-cyclobutyl)methyl)-1,2,3-oxadiazol-3-ium-5-yl)((3-(2-phenylacetamido)-5-(trifluoromethyl)-phenyl)carbamoyl)amide] reads over 20000 nM; that for `CCOC(=O)CN1CCC(C[n+]2cc([N-]C(=O)Nc3cc(NC(=O)Cc4ccccc4)cc(C(F)(F)F)c3)on2)CC1` [Example 140, (3-((1-(2-Ethoxy-2-oxoethyl)piperidin-4-yl)methyl)-1,2,3-oxadiazol-3-ium-5-yl)((3-(2-phenylacetamido)-5-(trifluoromethyl)phenyl)-carbamoyl)amide], 100 to 1000 nM; that for `O=C(Cc1ccccc1)Nc1cc(NC(=O)[N-]c2c[n+](CC3CCN(CCO)CC3)no2)cc(C(F)(F)F)c1` [Example 141, (3-((1-(2-Hydroxyethyl)piperidin-4-yl)methyl)-1,2,3-oxadiazol-3-ium-5-yl)((3-(2-phenylacetamido)-5-(trifluoromethyl)phenyl)-carbamoyl)amide], 1000 to 20000 nM.

A further experiment concerns the target T1, West Nile Virus (WNV) NS2B-NS3 protease (West Nile virus, UniProt Q9Q6P4).
T1 construct: NS2B1423-1470); purchased R&D 2907-SE-020
In words: WNV protease inhibition assay. As to conditions: Table 4; letter codes for IC50. Type of experiment: biochemical. From the text:
WNV protease inhibition assay
As for `CN1c2ccccc2CCC1C[n+]1cc([N-]C(=O)Nc2ccnc(C(F)(F)F)c2)on1` (racemic) [Example 178, rac-(3-((1-Methyl-1,2,3,4-tetrahydroquinolin-2-yl)methyl)-1,2,3-oxadiazol-3-ium-5-yl)((2-(trifluoromethyl)pyridin-4-yl)carbamoyl)amide], the IC50 (usually the concentration that gives 50% inhibition) was in the range of 100 to 1000 nM.
Same read-out and setting: the result for `Cc1ncnc(C)c1-c1ccc(C[n+]2cc([N-]C(=O)N[C@H]3CC[C@@]4(C3)CC4(F)F)on2)nc1` (racemic) [Example 180, rac-(((3R,5S)-1,1-Difluorospiro[2.4]heptan-5-yl)carbamoyl)(3-((5-(4,6-dimethylpyrimidin-5-yl)pyridin-2-yl)methyl)-1,2,3-oxadiazol-3-ium-5-yl)amide] reads 1000 to 20000 nM.
`CN1CCc2ccccc2C1C[n+]1cc([N-]C(=O)Nc2ccnc(C(F)(F)F)c2)on1` (racemic) [Example 181, rac-(3-((2-Methyl-1,2,3,4-tetrahydroisoquinolin-1-yl)methyl)-1,2,3-oxadiazol-3-ium-5-yl)((2-(trifluoromethyl)pyridin-4-yl)carbamoyl)amide]: the IC50 is under 100 nM.
The compound `CN1CCc2ccccc2C1C[n+]1cc([N-]C(=O)Nc2cc(NC(=O)Cc3ccccc3)cc(C(F)(F)F)c2)on1` (racemic) [Example 192, rac-(3-((2-Methyl-1,2,3,4-tetrahydroisoquinolin-1-yl)methyl)-1,2,3-oxadiazol-3-ium-5-yl)((3-(2-phenylacetamido)-5-(trifluoromethyl)phenyl)carbamoyl)amide] returned an IC50 of 100 to 1000 nM.
Regarding `O=C([N-]c1c[n+](CC2CCCc3ccccc32)no1)Nc1ccnc(C(F)(F)F)c1` (racemic) [Example 200, Rac-(3-((1,2,3,4-Tetrahydronaphthalen-1-yl)methyl)-1,2,3-oxadiazol-3-ium-5-yl)((2-(trifluoromethyl)pyridin-4-yl)carbamoyl)amide], the IC50 fell in the range of 100 to 1000 nM.
